According to US20230174584A1, “Antibiotic Compounds” (priority 2019, published 2023):
Values after ≈ are worked out from the molar mass of the structure shown. Values joined by “and” are separate entries in the source; they are usually repeats but may differ in a detail not shown here. Identical values can stand only once. Like-named read-outs stand apart in the source and are kept apart here.

Experiments:
[1] = system: VRE E155; test: Resistance development serial passage assay; format: cell-based, Enterococcus faecium; settings: VanA-type VRE strain serially passaged over 30 days in sub-lethal antibiotic concentrations
Protocol: (§1) FIG. 3 illustrates the results obtained when selected compounds were assessed using a resistance development serial passage assay. A) Daily fold-increase of MIC compared to initial MIC against MRSA USA 300 grown in sub-lethal concentrations of daptomycin, compound 5 or compound 16 over 30 days. B). Daily fold-increase of MIC compared to initial MIC against VRE E155 grown in sub-lethal concentrations of daptomycin, compound 5 or compound 16 over 30 days.
(§2) From glycerol stocks, bacterial strains were cultured on blood agar plates and incubated overnight at 37° C. A single colony was grown to exponential phase (OD600=0.5) in TSB+0.002% p80 and diluted 1:100 in fresh media. In polypropylene 96-well microtiter plates, antibiotics were added in biological triplicates and serial diluted 2-fold by transfer and mixing from one well to the next to achieve a final volume of 50 μL per well. An equal volume of bacterial suspension was added to the wells and plates were incubated overnight at 37° C. […] This procedure was repeated for 30 days and the MIC was recorded daily. Cultures containing daptomycin were supplemented with 50 mg L^−1 CaCl2 and 10 mg L^−1 MgSO4. The experiment was performed in biological replicates and for each replicate the MIC was determined from the median of a minimum of triplicates.

[2] = PK in naïve mice; format: in vivo; settings: mouse, 3 mg kg^−1 subcutaneous; for Cmax: read-out: C0/Cmax
Protocol: (§3) Mouse studies were performed using pathogen-free CD1 mice (ICR), a well characterized outbred murine strain (supplied by Charles River, Margate UK). All mice were male and weighed 11-15 gram upon arrival. and were allowed to acclimatize for at least 7 days prior to study initiation. Mice were individually housed in sterilized ventilated cages supplied with HEPA filtered sterile air and aspen chip bedding (changed a minimum of once a week). Food and water was available ad libitum. The room temperature was 22° C. 1° C., with a 60% relative humidity and a maximum background noise of 56 dB. Mice were exposed to a 12 h light/dark cycle.
Test article 5 was administered at 3 mg kg^−1 subcutaneously in naïve mice (n=3) that were not immunosuppressed or infected. Whole blood was collected from the tail vein at 5 min, 15 min, 30 min, 1 h, 2 h, 4 h and 8 h. The last sample was taken as a terminal cardiac puncture.

[3] = Tolerability in naïve mice; format: in vivo; settings: 100 mg/kg (SC), two mice
Protocol: as §3
Tolerability of compound 5 was assessed at 100 mg kg^−1 subcutaneous injection (in 10% DMSO in water for injection) in naïve mice (n=2) that were not immunosuppressed or infected.

[4] = system: MRSA USA 300; test: Resistance development serial passage assay; format: cell-based, Staphylococcus aureus; settings: MRSA serially passaged over 30 days in sub-lethal antibiotic concentrations
Protocol: as §1, §2

[5] = system: MRSA USA300 strain NRS384; test: Efficacy, neutropenic mouse thigh infection; format: in vivo, Staphylococcus aureus (in CD1 mice); settings: neutropenic mice, individual thighs, 23 h post treatment
Protocol: as §3
Mice were made neutropenic by a subcutaneous injection of 150 mg kg^−1 and 100 mg kg^−1 cyclophosphamide 4 days and 1 day before infection respectively. Mice were infected in both thighs with MRSA USA300 strain NRS384 (1.47×10^6 CFU mL-1, 7.33×10^4 CFU per thigh) intramuscularly under temporary anesthesia. […] Pretreatment group was euthanized one hour after infection and the other treatment groups were euthanized […]. Weighted thighs were homogenized and cultured on MSA agar at 37° C. for 18-24 h followed by colony counting. Each group consisted of n=6 mice with both thighs infected (n=12 thighs per treatment group) and each thigh was treated as a separate sample. Data analysis was done with StatsDirect software v. 3.2.8 using non-parametric statistical models (Kruskal-Wallis using Conover-Inman to make all pairwise comparisons between groups).
Colony forming units in neutropenic mice infected in each thigh with MRSA followed 1 h later by the first subcutaneous dose of antibiotic at concentrations indicated and subsequently the same dose at indicated intervals, with sacrifice and bacterial load determination in homogenized thighs at 23 h post treatment (24 h post infection). […] Data are mean±SEM (n=12, six mice per group, two thighs per mouse).

[6] = system: E. faecium E155; settings: Enterococcus faecium E155, strain description; cited from earlier work

Q: What does the source list for `CCCCCCCNC(N)=Nc1ccc(CN[C@@]2(C)C[C@H](O[C@H]3[C@H](Oc4c5cc6cc4Oc4ccc(cc4Cl)[C@@H](O)[C@@H](NC(=O)[C@@H](CC(C)C)NC)C(=O)N[C@@H](CC(N)=O)C(=O)N[C@H]6C(=O)N[C@H]4C(=O)N[C@H](C(=O)N[C@H](C(=O)O)c6cc(O)cc(O)c6-c6cc4ccc6O)[C@H](O)c4ccc(c(Cl)c4)O5)O[C@H](CO)[C@@H](O)[C@@H]3O)O[C@@H](C)[C@H]2O)cc1` [Compound 5]?
A: resistance induction, fold-increase of MIC compared to initial MIC [1]: low levels of resistance induction; AUC0-t ([2]; Mean/Median (n=3)): 3.134 µM·h; AUC % Extrapolation to infinity ([2]; Mean/Median (n=3)): 1.9%; C0/Cmax ([2]; Mean/Median (n=3)): 1813 ng/mL; CL/CL_F ([2]; Mean/Median (n=3)): 9.30 mL/min/kg; Clast ([2]; Mean/Median (n=3)): 54.6 ng/mL; t1/2 ([2]; Mean/Median (n=3)): 1.22 h; tlast ([2]; Mean/Median (n=3)): 8.00 h; tmax ([2]; Mean/Median (n=3)): 1.00 h; Cmax ([2]; Mean/Median (n=3)): 1070 nM; AUC0-t ([2]; individual samples 1-3): 3.238 µM·h and 3.368 µM·h and 2.797 µM·h; AUC % Extrapolation to infinity ([2]; individual samples 1-3): 3.1% and 0.9% and 1.6%; AUCinf ([2]; individual samples 1-3): 5664 ng hr mL^−1 and 5759 ng hr mL^−1 and 4814 ng hr mL^−1 and 3342 nM hr and 3398 nM hr and 2841 nM hr; C0/Cmax ([2]; individual samples 1-3): 1989 ng/mL and 1903 ng/mL and 1546 ng/mL; CL/CL_F ([2]; individual samples 1-3): 9 mL min^−1 kg^−1 (2×) and 10 mL min^−1 kg^−1; Clast ([2]; individual samples 1-3): 85.3 ng/mL and 34.4 ng/mL and 44.2 ng/mL; t1/2 ([2]; individual samples 1-3): 1.43 h and 1.05 h and 1.17 h; tlast ([2]; individual samples 1-3): 8.00 h; tmax ([2]; individual samples 1-3): 1.00 h (2×) and 2.00 h; Cmax ([2]; individual samples 1-3): 1170 nM and 1120 nM and 912 nM; adverse effects and gross morphology [3]: No adverse effects and normal gross morphology; tolerability [3]: well tolerated; resistance induction, fold-increase of MIC compared to initial MIC [4]: did not induce resistance; Thigh burden ([5]; 3 mg kg^−1 q6h subcutaneous): 113 CFU g^−1 (2×) and 368 CFU g^−1 and 456 CFU g^−1 and 9139 CFU g^−1 and 666 CFU g^−1 and 350 CFU g^−1 and 587 CFU g^−1 and 75 CFU g^−1 and 42132 CFU g^−1 and 7735 CFU g^−1 and 3885 CFU g^−1; Thigh burden ([5]; 10 mg kg^−1 q6h subcutaneous): 368 CFU g^−1 and 35 CFU g^−1 and 77 CFU g^−1 and 96 CFU g^−1 and 76 CFU g^−1 and 40 CFU g^−1 and BLD (2×) and 158 CFU g^−1 and 7984 CFU g^−1 and 81 CFU g^−1 and 34 CFU g^−1

Q: What does the source list for `CN[C@H](CC(C)C)C(=O)N[C@H]1C(=O)N[C@@H](CC(N)=O)C(=O)N[C@H]2C(=O)N[C@H]3C(=O)N[C@H](C(=O)N[C@H](C(=O)O)c4cc(O)cc(O)c4-c4cc3ccc4O)[C@H](O)c3ccc(c(Cl)c3)Oc3cc2cc(c3O[C@@H]2O[C@H](CO)[C@@H](O)[C@H](O)[C@H]2O[C@H]2C[C@](C)(N)[C@H](O)[C@H](C)O2)Oc2ccc(cc2Cl)[C@H]1O` [Vancomycin, reference compound]?
A: MIC vancomycin (strain description) [6]: 1020 µg/mL (≈ 707 µM); Thigh burden ([5]; 25 mg kg^−1 q12h subcutaneous): 2023 CFU g^−1 and 1148 CFU g^−1 and 142564 CFU g^−1 and 283390 CFU g^−1 and 1204 CFU g^−1 and 310 CFU g^−1 and BLD and 6736 CFU g^−1 and 106 CFU g^−1 and 825 CFU g^−1 and 1030 CFU g^−1
